Reference: patent US20250314638A1, “OBLIQUE LINE SCANNER SYSTEMS AND METHODS FOR HIGH THROUGHPUT SINGLE MOLECULE TRACKING IN LIVING CELLS” (EIKON THERAPEUTICS, INC., priority 2022, published 2025)

System: Halo-PCNA U2OS cells
Test: Cell cycle block validated by machine-learning cell cycle phase assignment in Halo-PCNA cells
Assay type: cell-based
Conditions: 2 mM Thymidine (S-phase block) or (G2-M block)
Experimental: Time-lapse microscopy was conducted on Halo-PCNA labeled with 50 nM JFX650, to achieve near-saturating labeling, for 12 hours at 12 frames per hour (FIG. 21A). A machine learning model was then trained using both manually assigned cell stages and time-based progression resulting in both a G1, early S, mid S, late S, G2 and mitosis classifier as well as a regression prediction across the continuum of the cell cycle (FIG. 21B). The predicted cell cycle classification performed well as compared to manual annotation (FIG. 21C). Clear progression of individual cells through the cell cycle was observed when regression prediction was plotted across the time series (FIG. 21D). […] When cells in each cell phase were analyzed separately, it became apparent that the slow-moving population of PCNA was exclusively found in cell predicted to be in S-phase and that there was a marked decrease in the fast-moving population (FIG. 20E). Mean diffusion coefficient of PCNA was then measured for 4,081 individual cells to characterize heterogeneity across the cell population, which is described in large part by cell cycle (FIG. 20F).
Cell cycle as provided above can be automatically determined using an image (e.g., an image of JF549-labeled PCNA). […]

| SMILES | fraction of cells assigned to cell cycle phases |
| --- | --- |
| O=C1NC(=NCc2cccs2)S/C1=C\c1ccc2ncccc2c1 [RO-3306] | expected enrichment in the fraction of cells assigned to the respective cell phases |
| Cc1cn([C@H]2C[C@H](O)[C@@H](CO)O2)c(=O)[nH]c1=O [thymidine] | expected enrichment in the fraction of cells assigned to the respective cell phases |
